{"source": "patent US12048686B2", "about": "“Compositions and methods for activating NRF2-dependent gene expression” (The University of Chicago, priority 2018, dated 2024)", "key": {"KEAP1": {"biological_target": "T1, KEAP1 (Homo sapiens, UniProt Q14145)", "T1 construct": "full-length, human KEAP1 (28023, Addgene) was transiently expressed from a pcDNA/FRT/TO plasmid with a C-terminal 3×FLAG tag; host or cells: HEK293T", "T1 sequence (Q14145 whole entry)": "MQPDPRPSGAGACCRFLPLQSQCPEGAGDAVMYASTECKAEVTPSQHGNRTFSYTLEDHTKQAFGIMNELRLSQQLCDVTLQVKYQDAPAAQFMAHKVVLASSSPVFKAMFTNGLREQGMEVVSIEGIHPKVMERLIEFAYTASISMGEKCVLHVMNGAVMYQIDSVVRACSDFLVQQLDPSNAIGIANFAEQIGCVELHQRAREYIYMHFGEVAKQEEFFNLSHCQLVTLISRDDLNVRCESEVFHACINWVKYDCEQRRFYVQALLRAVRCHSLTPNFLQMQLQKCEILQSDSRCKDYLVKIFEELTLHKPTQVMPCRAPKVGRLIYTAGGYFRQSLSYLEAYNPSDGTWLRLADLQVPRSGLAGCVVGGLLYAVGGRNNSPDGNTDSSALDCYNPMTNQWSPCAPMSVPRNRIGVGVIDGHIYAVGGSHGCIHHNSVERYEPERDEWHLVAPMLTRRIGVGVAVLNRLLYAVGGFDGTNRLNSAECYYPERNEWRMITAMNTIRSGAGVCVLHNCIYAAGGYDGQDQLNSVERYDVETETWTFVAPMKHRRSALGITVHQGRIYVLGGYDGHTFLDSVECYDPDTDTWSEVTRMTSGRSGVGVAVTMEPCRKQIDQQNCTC", "test": "MGx dose-response HMW-KEAP1 formation in FLAG-KEAP1 lysates or purified KEAP1", "type": "biochemical", "details": "FLAG-KEAP1 containing lysates or purified KEAP1, freshly distilled MGx", "experimental": "Metabolite Treatments and HMW-KEAP1 screening. For in vitro screening of glycolytic metabolites, HEK293T cells expressing FLAG-KEAP1 were lysed by snap-freeze-thaw cycles (3×) in PBS, pH 7.4, containing EDTA-free complete protease inhibitor (Roche). Lysates were cleared by centrifugation and the supernatants normalized for concentration by Bradford reagent (2 mg/mL). Concentrated stocks of each metabolite were made in PBS, which were added to the lysate samples for the final indicated concentrations and incubated at 37° C. for 2.5 hours with shaking. Following incubation, samples were denatured with 6 M urea and processed for SDS-PAGE and western blotting. Methylglyoxal (40% v/v with H2O), glyceraldehyde 3-phosphate (GAP), dihydroxyacetone phosphate (DHAP), and 2,3-bisphosphoglycerate (2,3-BPG) were all obtained from Sigma Aldrich and used as PBS stocks. […] Each mixture was incubated at 37° C. for 8 hours with rotating, HMW-KEAP1 formation was analyzed by SDS-PAGE and western blot.\nFor studies with recombinant KEAP1, FLAG-KEAP1 was expressed in HEK293T cells from transient transfection of the Flag-Keap1 plasmid (Addgene plasmid #28023). […] 12 μL of this reaction was then separated by SDS-PAGE and the presence of HMW-KEAP1 evaluated by anti-FLAG Western blotting as described or by silver staining using the Pierce Silver Stain Kit (ThermoFisher Scientific)."}, "IMR32 cells": {"test_system": "IMR32 cells", "test": "Quantitative metabolomic profiling of IMR32 cells", "type": "cell-based", "experimental": "Quantitative Metabolomic Profiling. For polar metabolite profiling experiments, cells were grown in 15 cm plates and cultured in RPMI supplemented with 10% FBS, 2 mM L-glutamine and 1% P/S prior to media replacement containing either vehicle (DMSO) or the indicated dose of CBR-470-1. Following incubation for the appropriate time, cells were scraped into ice-cold PBS and isolated by centrifugation at 1,400 g at 4° C. Cell pellets were resuspended in 300 μl of an 80:20 mixture of cold MeOH/H2O, an internal standard was added (10 nmol d3-serine; Sigma Aldrich), and the suspension was sonicated (Fisher Scientific FB-505) for 5 seconds followed by a 10 minute centrifugation at 16,000 g. […] Metabolite peak transitions and retention times are listed in Table 2 and were confirmed by running standards for measured glycolytic, PPP, CAC and co-factor metabolites. 2-phosphoglycerate and 3-phosphoglycerate isomers were quantified in aggregate (2PG/3PG). Relative metabolite abundance was quantified by integrated peak area for the given MRM-transition, and all metabolite levels were normalized to internal standard extracted ion intensity values for d3-serine. These parameters were used to quantify all metabolites, with the exception of 1,3-BPG and MGx, which required chemical derivitization to stable intermediates prior to LC-MS/MS quantification, as previously reported^20, 33. […]"}}, "data": [{"smiles": "CC(=O)C=O", "note": "[MGx, methylglyoxal, reference compound]", "values": [{"measurement": "formation of HMW-KEAP1", "setting": "KEAP1", "result": "dose-dependent formation of HMW-KEAP1 at mid-μM concentrations"}]}, {"smiles": "CC(C)CN[C@H]1CS(=O)(=O)C[C@@H]1S(=O)(=O)c1ccc(Cl)cc1", "note": "[CBR-470-1]", "values": [{"measurement": "downstream metabolites (3PG, lactate)", "setting": "IMR32 cells", "result": "depletion of downstream metabolites"}, {"measurement": "metabolite levels upstream of PGK1 (BPG, GAP)", "setting": "IMR32 cells", "result": "rapid increase in metabolite levels upstream of PGK1"}]}]}
